22 molecules from PMC10944868, “Synthesis, biological and computational evaluation of novel cyanomethyl vinyl ether derivatives” (Frontiers in Pharmacology, 2024) can be followed below.

Holding throughout (type): cell-based
Assay [1] concerns BT20 (human breast carcinoma). Briefly: Cytotoxicity assay (CCK8), BT20. The note with it: BT20 cells. Here is the method:
(§1) Cells were cultured according to the supplier´s instructions (ATCC technologies, A-549 (CCL-185), BT-20 (HTB-19), SKOV3 (HTB-77), HCT116 (CCL-247), MRC5 (CCL-171). Cells were seeded in 96-well plates at a density of 2–2.5 × 10^3 cells per well and incubated overnight in 0.1 mL of media supplied with 10% Fetal Bovine Serum (Lonza) in 5% CO2 incubator at 37°C. On day 2, drugs were added and samples were incubated for 48 h. After treatment, 10 µL of cell counting kit-8 was added into each well for additional 2 h incubation at 37°C. The absorbance of each well was determined by an Automatic Elisa Reader System at 450 nm wavelength.

The subject of assay [2] is SKOV3 (human ovarian carcinoma). Briefly: Cytotoxicity assay (CCK8), SKOV3. Particulars: SK-OV-3, SKOV3 cells, 48 h. Here is the method: as §1
The test system of assay [3] is HCT-116 (human colorectal carcinoma). Briefly: Cytotoxicity assay (CCK8), HCT116. The note with it: HCT116 cells, 48 h. As to the method: as §1
The subject of assay [4] is A549 (carcinomic human alveolar basal epithelial cells). Briefly: Cytotoxicity assay (CCK8), A549. The note with it: 48 h. As to the method: as §1
In assay [5] the test system is MRC-5 (non-malignant lung fibroblasts). Kind of assay: Cytotoxicity assay (CCK8), MRC5. Particulars: Homo sapiens, MRC5 non-cancerous cells, 48 h. Here is the method: as §1

As for `CCC(C#N)O/C=C/C(=O)OC` (stereo not shown) [Compound 1E], the IC50 (commonly the midpoint of a concentration-inhibition curve) in assay [1] (Homo sapiens, BT-20, 48 h) is 7.07 ± 1.28 µM; in assay [2] it was 2.92 ± 0.28 µM; in assay [3], more than 50 µM; in assay [4] it was more than 50 µM; in assay [5], more than 50 µM.
As for `CCC(C#N)O/C=C\C(=O)OC` (stereo not shown) [Compound 1Z], the IC50 in assay [1] (Homo sapiens, BT-20, 48 h) was more than 50 µM; in assay [2] it was more than 50 µM; in assay [3] it was more than 50 µM; in assay [4] it was more than 50 µM; in assay [5] it was more than 50 µM.
For the molecule `CCCCCCC(C#N)O/C=C/C(=O)OC` (stereo not shown) [Compound 2E], the IC50 in assay [1] (Homo sapiens, BT-20, 48 h) was 15.8 ± 2.9 µM; in assay [2], 41.6 ± 2.46 µM; in assay [3], more than 50 µM; in assay [4], more than 50 µM; in assay [5], more than 50 µM.
`CCCCCCC(C#N)O/C=C\C(=O)OC` (stereo not shown) [Compound 2Z]: the concentration for half-maximal inhibition (IC50) was 17.3 ± 3.44 µM in assay [1] (Homo sapiens, BT-20, 48 h); more than 50 µM in assay [2]; more than 50 µM in assay [3]; more than 50 µM in assay [4]; more than 50 µM in assay [5].
For the molecule `CCCOC(=O)/C=C/OC(C#N)c1ccccc1` (stereo not shown) [Compound 3E, Propyl (E)-3-(cyano(phenyl)methoxy)acrylate], the IC50 in assay [2], in assay [3], in assay [4] and in assay [5] was more than 50 µM each time.
Take `CCCOC(=O)/C=C\OC(C#N)c1ccccc1` (stereo not shown) [Compound 3Z, Propyl (Z)-3-(cyano(phenyl)methoxy)acrylate]: the IC50 in assay [2], in assay [3], in assay [4] and in assay [5] was more than 50 µM each time.
With `CC(C)OC(=O)/C=C/OC(C#N)c1ccccc1` (stereo not shown) [Compound 4E, Isoropyl (E)-3-(cyano(phenyl)methoxy)acrylate], the IC50 in assay [2], in assay [3], in assay [4] and in assay [5] was more than 50 µM each time.
Regarding `CC(C)OC(=O)/C=C\OC(C#N)c1ccccc1` (stereo not shown) [Compound 4Z, Isoropyl (Z)-3-(cyano(phenyl)methoxy)acrylate], the half-inhibitory concentration (IC50) in assay [2], in assay [3], in assay [4] and in assay [5] was more than 50 µM each time.
`COC(=O)/C=C/OC(C#N)c1ccccc1` (stereo not shown) [Compound 5E]: the IC50 is 8.31 ± 1.26 µM in assay [1] (Homo sapiens, BT-20, 48 h); 3.84 ± 1.56 µM in assay [2]; more than 50 µM in assay [3]; 18.9 ± 1.2 µM in assay [4]; more than 50 µM in assay [5].
In the case of `COC(=O)/C=C\OC(C#N)c1ccccc1` (stereo not shown) [Compound 5Z], the IC50 in assay [1] (Homo sapiens, BT-20, 48 h) was 19.9 ± 3.42 µM; in assay [2] it was 29.8 ± 2.09 µM; in assay [3], more than 50 µM; in assay [4] it was more than 50 µM; in assay [5], more than 50 µM.
Take `COC(=O)/C=C/OC(C#N)c1ccc(OC)cc1` (stereo not shown) [Compound 6E]: the IC50 is 27.8 ± 5.31 µM in assay [1] (Homo sapiens, BT-20, 48 h); 12.4 ± 1.18 µM in assay [2]; more than 50 µM in assay [3]; more than 50 µM in assay [4]; more than 50 µM in assay [5].
For the molecule `COC(=O)/C=C\OC(C#N)c1ccc(OC)cc1` (stereo not shown) [Compound 6Z], the IC50 is 12.6 ± 1.76 µM in assay [1] (Homo sapiens, BT-20, 48 h); 31.3 ± 4.42 µM in assay [2]; more than 50 µM in assay [3]; more than 50 µM in assay [4]; more than 50 µM in assay [5].
Regarding `COC(=O)/C=C/OC(C#N)c1ccc(C(F)(F)F)cc1` (stereo not shown) [Compound 7E], the IC50 is 10 ± 2.17 µM in assay [1] (Homo sapiens, BT-20, 48 h); 2.62 ± 0.53 µM in assay [2]; more than 50 µM in assay [3]; 29.3 ± 1.1 µM in assay [4]; more than 50 µM in assay [5].
As for `COC(=O)/C=C\OC(C#N)c1ccc(C(F)(F)F)cc1` (stereo not shown) [Compound 7Z], the concentration for half-maximal inhibition (IC50) in assay [1] (Homo sapiens, BT-20, 48 h) is more than 50 µM; in assay [2] it was more than 50 µM; in assay [3], more than 50 µM; in assay [4], more than 50 µM; in assay [5], more than 50 µM.
As to `COC(=O)/C=C/OC(C#N)c1ccc(F)cc1` (stereo not shown) [Compound 8E], the IC50 in assay [2], in assay [3], in assay [4] and in assay [5] was more than 50 µM in each case.
On to `COC(=O)/C=C\OC(C#N)c1ccc(F)cc1` (stereo not shown) [Compound 8Z], for which the half-maximal inhibitory concentration (IC50) in assay [2], in assay [3], in assay [4] and in assay [5] was more than 50 µM each time.
In the case of `COC(=O)/C=C/OC(C#N)c1ccc(C)cc1` (stereo not shown) [Compound 9E], the IC50 in assay [1] (Homo sapiens, BT-20, 48 h) was 4.98 ± 2.77 µM; in assay [2], 8.08 ± 2.08 µM; in assay [3], more than 50 µM; in assay [4] it was 21.4 ± 0.83 µM; in assay [5], more than 50 µM.
Turning to `COC(=O)/C=C\OC(C#N)c1ccc(C)cc1` (stereo not shown) [Compound 9Z], the IC50 in assay [1] (Homo sapiens, BT-20, 48 h) is 20.2 ± 3.78 µM; in assay [2] it was more than 50 µM; in assay [3] it was more than 50 µM; in assay [4], more than 50 µM; in assay [5], more than 50 µM.
In the case of `COC(=O)/C=C/OC(C#N)c1cccs1` (stereo not shown) [Compound 10E], the IC50 in assay [2], in assay [3], in assay [4] and in assay [5] was more than 50 µM throughout.
`COC(=O)/C=C\OC(C#N)c1cccs1` (stereo not shown) [Compound 10Z]: the IC50 in assay [2], in assay [3], in assay [4] and in assay [5] was more than 50 µM each time.
`COC(=O)/C=C/OC(C#N)c1cc2ccccc2c2ccccc12` (stereo not shown) [Compound 12E]: the concentration for half-maximal inhibition (IC50) in assay [1] (48 h) is 7 ± 1.96 µM; in assay [1] (Homo sapiens, BT-20, 48 h), 9.89 ± 0.25 µM; in assay [2] it was 7.35 ± 1.42 µM; in assay [3], 16.1 ± 1.2 µM; in assay [4], 9.89 ± 0.25 µM; in assay [5] it was 14.4 ± 0.86 µM.
With `COC(=O)/C=C\OC(C#N)c1cc2ccccc2c2ccccc12` (stereo not shown) [Compound 12Z], the IC50 was 11.9 ± 1.1 µM in assay [1] (Homo sapiens, BT-20, 48 h); 11.9 ± 1.88 µM in assay [2]; more than 50 µM in assay [3]; more than 50 µM in assay [4]; more than 50 µM in assay [5].
